Results reported in the Kinase Knowledgebase extract (Sharma et al. 2016).

Biological target: MAPK14 (human) (UniProt Q16539)
Assay: Inhibition of MAPK14 Kinase Activity

Sequence of MAPK14 (human) (Q16539 whole entry, looked up): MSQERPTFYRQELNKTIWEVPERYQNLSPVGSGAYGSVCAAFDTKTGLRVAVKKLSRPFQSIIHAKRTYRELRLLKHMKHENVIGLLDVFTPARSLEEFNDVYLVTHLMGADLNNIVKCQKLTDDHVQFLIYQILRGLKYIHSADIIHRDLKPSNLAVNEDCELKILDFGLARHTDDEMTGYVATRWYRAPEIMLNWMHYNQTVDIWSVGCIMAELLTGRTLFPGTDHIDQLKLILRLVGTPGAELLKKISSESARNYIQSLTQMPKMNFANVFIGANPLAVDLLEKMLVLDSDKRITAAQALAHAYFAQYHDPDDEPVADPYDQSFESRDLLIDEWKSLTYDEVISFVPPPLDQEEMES

Row | SMILES | IC50
1 | Cc1cc(F)ccc1-c1nc(NC(CO)CO)nc2c1ccc(=O)n2C1CC1 | < 10 µM
2 | Cc1cc(F)ccc1-c1nc(NC(CO)CO)nc2c1ccc(=O)n2CC1CC1 | < 10 µM
3 | CCC(CC)n1c(=O)ccc2c(-c3ccccc3Cl)nc(NCCN)nc21 | < 10 µM
4 | O=c1ccc2c(-c3ccccc3F)nc(NC(CO)CO)nc2n1CC1CC1 | < 10 µM
5 | Cc1cc(F)ccc1-c1nc(NCC(=O)O)nc2c1ccc(=O)n2-c1c(F)cccc1F | < 10 µM
6 | Cc1cc(F)ccc1-c1nc(NCCCl)nc2c1ccc(=O)n2-c1c(F)cccc1F | < 10 µM
7 | Cc1cc(F)ccc1-c1nc(NC[C@@H](C)O)nc2c1ccc(=O)n2-c1ccccc1F | < 10 µM
8 | Cc1cc(F)ccc1-c1nc(NCC(N)=O)nc2c1ccc(=O)n2-c1c(F)cccc1F | < 10 µM
9 | Cc1cc(F)ccc1-c1nc(NS(C)(=O)=O)nc2c1ccc(=O)n2-c1c(F)cccc1F | < 10 µM
10 | CSc1nc(-c2ccc(F)cc2C)c2ccc(=O)n(-c3c(F)cccc3F)c2n1 | < 10 µM
11 | Cc1cc(F)ccc1-c1nc(NC(CO)CO)nc2c1ccc(=O)n2C(C)C | < 10 µM
12 | Cc1cc(F)ccc1-c1nc(N[C@H]2CC[C@H](O)CC2)nc2c1ccc(=O)n2-c1c(F)cccc1F | < 10 µM
13 | CCC(CC)n1c(=O)ccc2c(-c3ccc(F)cc3C)nc(OC)nc21 | < 10 µM
14 | CSc1nc(-c2ccccc2F)c2ccc(=O)n(C(C)C)c2n1 | < 10 µM
15 | CSc1nc(-c2ccccc2F)c2ccc(=O)n(CC3CC3)c2n1 | < 10 µM
16 | Cc1cc(F)ccc1-c1nc(NC[C@@H](C)O)nc2c1ccc(=O)n2-c1c(F)cccc1F | < 10 µM
17 | Cc1cc(F)ccc1-c1nc(OCCCS(C)(=O)=O)nc2c1ccc(=O)n2-c1c(F)cccc1F | < 10 µM
18 | Cc1cc(F)ccc1-c1nc(OCCNC(=O)OC(C)(C)C)nc2c1ccc(=O)n2-c1c(F)cccc1F | < 10 µM
19 | Cc1cc(F)ccc1-c1nc(NC2CCCCC2)nc2c1ccc(=O)n2-c1ccccc1C | < 10 µM
20 | CCC(=O)NCCNc1nc(-c2ccc(F)cc2C)c2ccc(=O)n(-c3c(F)cccc3F)c2n1 | < 10 µM

Row | SMILES | IC50
21 | CCNc1nc(-c2ccc(F)cc2C)c2ccc(=O)n(-c3ccccc3F)c2n1 | < 10 µM
22 | Cc1cc(F)ccc1-c1nc(NC2CCCCC2)nc2c1ccc(=O)n2-c1c(F)cccc1F | < 10 µM
23 | CCC(CC)n1c(=O)ccc2c(-c3ccccc3Cl)nc(NCCN(CC)CC)nc21 | < 10 µM
24 | CS(=O)(=O)Nc1nc(-c2ccccc2F)c2ccc(=O)n(-c3ccccc3F)c2n1 | < 10 µM
25 | Cc1cc(F)ccc1-c1nc(NC(=O)C2CC2)nc2c1ccc(=O)n2-c1c(F)cccc1F | < 10 µM
26 | O=c1ccc2c(-c3ccccc3Cl)nc(OCCO)nc2n1-c1ccccc1Cl | < 10 µM
27 | Cc1cc(F)ccc1-c1nc(NCCc2c[nH]cn2)nc2c1ccc(=O)n2-c1c(F)cccc1F | < 10 µM
28 | CCC(CC)n1c(=O)ccc2c(-c3ccccc3Cl)nc(NC(CO)CO)nc21 | < 10 µM
29 | Cc1cc(F)ccc1-c1nc(NCCN)nc2c1ccc(=O)n2-c1c(F)cccc1F | < 10 µM
30 | Cc1cc(F)ccc1-c1nc(NCCNC(=O)Nc2cccc(F)c2)nc2c1ccc(=O)n2-c1c(F)cccc1F | < 10 µM
31 | Cc1cc(F)ccc1-c1nc(N[C@@H]2CS(=O)(=O)C[C@H]2O)nc2c1ccc(=O)n2-c1c(F)cccc1F | < 10 µM
32 | CCC(CC)n1c(=O)ccc2c(-c3ccccc3Cl)nc(NCCO)nc21 | < 10 µM
33 | CC(C)n1c(=O)ccc2c(-c3ccccc3F)nc(NS(C)(=O)=O)nc21 | < 10 µM
34 | CCC(C)n1c(=O)ccc2c(-c3ccc(F)cc3C)nc(SC)nc21 (centres undefined) | < 10 µM
35 | Cc1cc(F)ccc1-c1nc(S(C)(=O)=O)nc2c1ccc(=O)n2-c1ccccc1C | < 10 µM
36 | Cc1cc(F)ccc1-c1nc(NC[C@@H](C)O)nc2c1ccc(=O)n2-c1ccccc1C | < 10 µM
37 | Cc1cc(F)ccc1-c1nc(NCC(C)(C)O)nc2c1ccc(=O)n2C1CCCCC1 | < 10 µM
38 | Cc1cc(F)ccc1-c1nc(N[C@@H](C)CO)nc2c1ccc(=O)n2-c1c(F)cccc1F | < 10 µM
39 | Cc1cc(F)ccc1-c1nc(NC(CO)CO)nc2c1ccc(=O)n2-c1c(C)cccc1C | < 10 µM
